{"source": "ChEMBL document CHEMBL1157539", "about": "“Thousands of chemical starting points for antimalarial lead identification” (Nature, 2010)", "data": [{"test_system": "Plasmodium falciparum", "test": "GSK_TCMDC: Inhibition of Plasmodium falciparum 3D7 in whole erythrocytes, using parasite LDH activity as an index of growth.", "format": "functional, organism-based", "conditions": "Plasmodium falciparum, 3D7", "units": {"XC50": "nM"}, "values": [{"smiles": "CCN(CC)CCN(Cc1ccc(-c2ccc(C(F)(F)F)cc2)cc1)C(=O)Cn1c(CCc2cc(F)cc(F)c2)nc(=O)c2ccccc21", "XC50": 983}, {"smiles": "O=C(Cn1c(CCc2cccc(F)c2F)cc(=O)c2ccccc21)N(CCN1CCCC1)Cc1ccc(-c2ccc(C(F)(F)F)cc2)cc1", "XC50": 859}, {"smiles": "Cc1ccc(Oc2ccc(NC(=O)CNc3ccccc3N3CCCC3=O)cc2)cc1", "XC50": 366}, {"smiles": "CN1CCN(CC(O)CNC(=O)Nc2ccc(Br)cc2)CC1", "note": "(stereo not given)", "XC50": 149}, {"smiles": "O=C(NCCCN1CCCCC1)c1ccc(Nc2nccc(Nc3ccc(Oc4ccccc4)cc3)n2)cc1", "XC50": 626}, {"smiles": "OC1=C2C(=Nc3ccccc3SC2c2ccccc2)c2ccccc21", "note": "(stereo not given)", "XC50": 325}, {"smiles": "CCOC(=O)c1ccc(NC(=O)Nc2ccc(-c3ccc(-c4nc5ccccc5[nH]4)cc3)cc2)cc1", "XC50": 22.3}, {"smiles": "COc1ccccc1CCNc1nc(C)cc(N[C@@H](CC(C)C)C(=O)NCc2cccs2)n1", "XC50": 793}, {"smiles": "COc1ccc(CNC(=O)c2cnc3c(O)cccc3c2Nc2cccc(NC(=O)c3ccc(F)cc3)c2)cc1", "XC50": 996}, {"smiles": "CCc1cn2c3c(cc(C(=O)N[C@@H](Cc4cc(F)cc(F)c4)[C@H](O)CNC4CCOCC4)cc13)N(C)S(=O)(=O)CC2", "XC50": 33.6}, {"smiles": "COc1ccc2nccc(NC(=O)C3(O)CCC(NCc4ncc5c(c4Cl)OCCO5)CC3)c2n1", "note": "(stereo not given)", "XC50": 254}, {"smiles": "Cc1sc(NC(=O)c2ccc([N+](=O)[O-])cc2Cl)c(C(N)=O)c1C", "XC50": 931}, {"smiles": "O=C1C(c2ccccc2)=C(Nc2ccc(Cl)cc2)c2ccccc21", "XC50": 613}, {"smiles": "COc1ccc2c(=O)c(-c3ccc(OC(F)(F)F)cc3)c(C)[nH]c2c1", "XC50": 233}, {"smiles": "CC(=O)NCC(=O)NC1=NC(=N)N(OCc2ccc3ccccc3c2)C(C)(C)N1", "XC50": 3.2}, {"smiles": "CN1CCN(CCCN(Cc2cccc(-c3ccc(CNCc4ccc5c(c4)OCO5)cc3)c2)C(=O)CCC2CCCC2)CC1", "XC50": 1000}, {"smiles": "CC(=O)c1sc2ccccc2c1O", "XC50": 880}, {"smiles": "Cc1ccc(N2C(=O)C3C(C2=O)C2(c4ccccc4)C(=O)C3(c3ccccc3)C(c3ccccc3)=C2c2ccccc2)cc1", "note": "(stereo not given)", "XC50": 869}, {"smiles": "O=C1C(=Cc2c(O)ccc3ccccc23)SC(=NCc2ccccc2)N1Cc1ccccc1", "XC50": 155}, {"smiles": "O=C1c2ccccc2CN1CCCN1CCC(Oc2ccc(F)cc2)CC1", "XC50": 1210}, {"smiles": "C=CCC1OC(=O)c2cc(OC)cc(OC)c21", "note": "(stereo not given)", "XC50": 343}, {"smiles": "Cc1cc(Cl)c(S(=O)(=O)NC2CCCC2)cc1OCC(=O)NC1CCCCC1", "XC50": 385}, {"smiles": "C[C@H](Cc1ccc(OCCCCCOc2ccc(C[C@@H](C)NC[C@H](O)c3cccc(Cl)c3)cc2)cc1)NC[C@H](O)c1cccc(Cl)c1", "XC50": 190}, {"smiles": "Clc1nc2ccccn2c1C=Cc1ccc2ccccc2n1", "XC50": 267}, {"smiles": "CC(=NNc1nc2ccccc2s1)c1ccccn1", "XC50": 1120}, {"smiles": "Brc1ccc(Nc2ccnc3cc(-c4nccs4)ccc23)cc1Oc1ccnc2cc(-c3nccs3)ccc12", "XC50": 1060}, {"smiles": "CS(=O)(=O)c1ccccc1CNC(=O)c1cccc(-c2ccc(-c3nc4cc(C(F)(F)F)ccc4[nH]3)cc2)c1", "XC50": 809}, {"smiles": "Cc1cccc(OCCCCON2C(=N)N=C(N)NC2(C)C)c1C", "XC50": 3.2}, {"smiles": "CC(C)CNC(=O)c1cncc(-c2cccc(CNC3Cc4ccccc4C3)c2)c1", "XC50": 786}, {"smiles": "CCCCc1ccc(Cc2cnc3nc(N)nc(N)c3c2C)cc1", "XC50": 235}, {"smiles": "Cc1cnc(NCC2CCCCC2)nc1NCC(=O)Nc1ccccc1", "XC50": 714}, {"smiles": "COc1ccc(CN(C)CCCc2ccc(NC(=O)Cc3ccc4nc(-c5ccccc5)ccc4c3)cc2)cc1OC", "XC50": 534}, {"smiles": "CCNS(=O)(=O)c1ccc(Oc2ccc([N+](=O)[O-])cc2)cc1", "XC50": 169}, {"smiles": "COc1ccc(NC(=O)Nc2cccc(-c3ccc(-c4nc5cccc(C)c5[nH]4)s3)c2)cc1", "XC50": 671}, {"smiles": "Cc1cc(Nc2ccc(C(C)(C)C)cc2)c2[nH]ncc2n1", "XC50": 1160}, {"smiles": "COc1cc(Br)ccc1N1CCN(CCCCNC(=O)c2ccc(NC(=O)c3ccc(Cl)cc3)cc2)CC1", "XC50": 758}, {"smiles": "CN(C)CCN(C)Cc1ccc(-c2ccc(NC(=O)c3cccc(Cl)c3)cc2)cc1", "XC50": 1140}, {"smiles": "CO/C(=C\\C=C\\c1cc2cc(Cl)c(Cl)cc2[nH]1)C(=O)NCC(C)(C)CN(C)C", "XC50": 1160}, {"smiles": "O=C(/C=C/c1ccc(Cl)c(Cl)c1)NCCCCCN1CCCC(C(=O)Nc2cccc(Cl)c2)C1", "note": "(stereo not given)", "XC50": 895}, {"smiles": "COc1ccc(-c2csc3ncnc(Cl)c23)cc1OC", "XC50": 769}, {"smiles": "CC(C)N1CCN(C(=O)c2ccc(CN(C)CCCN3CCN(c4cccc(Cl)c4Cl)CC3)s2)CC1", "XC50": 994}, {"smiles": "Cc1cc(N)c2cc(NC(=O)c3cccc4ccccc34)ccc2n1", "XC50": 844}, {"smiles": "CC1CN(c2cnn(C/C=C/c3ccc(NC(=O)c4ccc5nonc5c4)cc3)c(=O)c2Cl)CC(C)N1", "note": "(stereo not given)", "XC50": 786}, {"smiles": "N#Cc1ccc(C(=O)Nc2ccc(Cl)c(N3CCN(CCc4ccccc4)CC3)c2)cc1", "XC50": 929}, {"smiles": "COc1cc(C(=O)N2N=C(c3c(-c4ccccc4)c4cc(Br)ccc4[nH]c3=O)CC2c2cccc([N+](=O)[O-])c2)cc(OC)c1OC", "note": "(stereo not given)", "XC50": 943}, {"smiles": "O=C(Nc1ccc(-c2ccc(-c3nc4ccccc4[nH]3)s2)cc1)Nc1ccc(Cl)c(Cl)c1", "XC50": 165}, {"smiles": "COc1ccc2[nH]ccc(=NN=Cc3cccc(F)c3)c2c1", "XC50": 750}, {"smiles": "Cc1csc(-c2nc(NCc3cccnc3)ncc2-c2ccsc2)n1", "XC50": 1190}, {"smiles": "CCCCCCN1CCCN(Cc2cccc(NC(=O)c3cc4ccccc4s3)c2)CC1", "XC50": 660}, {"smiles": "COc1cccc(C(=O)Nc2ccc(Nc3nc(C)cc(N(C)C)n3)cc2)c1OC", "XC50": 1020}, {"smiles": "CCCNc1ccc(-c2cc(C(N)=O)c3[nH]cc(C4CCN(S(=O)(=O)CC)CC4)c3c2)cn1", "XC50": 817}, {"smiles": "CN1CCN(CC(=O)Nc2ccc(-c3ccc(-c4nc5ccccc5[nH]4)s3)cc2)CC1", "XC50": 299}, {"smiles": "O=C(Nc1cccc(C(F)(F)F)c1)c1cccc(S(=O)(=O)NC2CCCN(CC3CCCCC3)C2)c1", "note": "(stereo not given)", "XC50": 857}, {"smiles": "O=C(NC1CCCCC1)N(Cc1cccc(-c2cccc(CNC3CCCC3)c2)c1)C1CCN(Cc2ccccc2)CC1", "XC50": 736}, {"smiles": "CCCCNCc1ccc(-c2nc(CN(CCCn3ccnc3)C(=O)NC3CC3c3ccccc3)cs2)cc1", "note": "(stereo not given)", "XC50": 744}, {"smiles": "Cc1ccc(C(=O)NCC2CCN(c3ccc(C(F)(F)F)cc3NC(=O)c3ccco3)CC2)cn1", "XC50": 782}, {"smiles": "COc1ccc(NC(=O)[C@H](Cc2ccccc2)Nc2cc(C)nc(NCCc3ccccc3OC)n2)cc1", "XC50": 529}, {"smiles": "Fc1ccc(Nc2ccnc3cc(-c4ccc(CN5CCOCC5)o4)ccc23)c(Cl)c1", "XC50": 756}, {"smiles": "O=C(Nc1ccc(C(F)(F)F)cc1)c1ccc(S(=O)(=O)NC2CCN(CC3CCCCC3)CC2)cc1", "XC50": 731}, {"smiles": "C=CCn1c(=N)c(C(=O)NCc2ccc(F)cc2)cc2c(=O)n3cccc(C)c3nc21", "XC50": 1170}, {"smiles": "CCOCCCn1c(=N)c(C(=O)NC(C)c2ccccc2)cc2c(=O)n3cccc(C)c3nc21", "note": "(stereo not given)", "XC50": 1200}, {"smiles": "O=C(NCCCCN1CCC(c2ccc3c(c2OCCO)CCCC3)CC1)c1ccc(-c2ccc(C(F)(F)F)cc2)cc1", "XC50": 855}, {"smiles": "CC(=O)Nc1ccc(C(=O)Nc2cccc(-c3cccc(-c4nc5cc(C(F)(F)F)ccc5[nH]4)c3)c2)cn1", "XC50": 73.7}, {"smiles": "CC(Cc1ccc(OCc2ccccc2)c(Cl)c1)NCC(O)c1cccc(C(F)(F)F)c1", "note": "(stereo not given)", "XC50": 940}, {"smiles": "Fc1ccc(-c2cc3ncnc(N4CCN(CCN5CCCC5)CC4)c3s2)cc1", "XC50": 740}, {"smiles": "Cc1c(C)c2c(c(C)c1O)CC[C@@](C)(C(=O)N1CCC(CCN3CCC(c4c[nH]c5ccccc45)CC3)CC1)O2", "XC50": 666}, {"smiles": "COc1ccc(OC)c(-c2cccc(-c3cccc(NC(=O)c4ccc([N+](=O)[O-])o4)c3)n2)c1", "XC50": 371}, {"smiles": "COc1cc2nc(NCCc3ccccc3)nc(NCCc3ccccc3)c2cc1OC", "XC50": 282}, {"smiles": "Oc1ccc(CCNc2nc(NCCCOc3cccc(CN4CCCCC4)c3Cl)nc(N3CCNCC3)n2)cc1", "XC50": 1370}, {"smiles": "Cn1cccc1CCNCc1ccc(-c2cccc(-c3nc4cc(F)ccc4[nH]3)c2)cc1", "XC50": 1220}, {"smiles": "CC(C)(C)c1ccc(CN2CCC(CNC(=O)c3cc(-c4ccccc4Cl)cs3)C2)cc1", "note": "(stereo not given)", "XC50": 856}, {"smiles": "CNC(=O)c1cnc(Nc2ccc(N3CCN(C)CC3)cc2)nc1Nc1cccc([N+](=O)[O-])c1", "XC50": 288}, {"smiles": "O=C(Nc1ccccc1)N(Cc1cccc(-c2ccc(CNCc3ccc4c(c3)OCO4)cc2)c1)C1CCN(Cc2ccccc2)CC1", "XC50": 325}, {"smiles": "N#Cc1cccc(CN2CCCN(Cc3cccc(C(=O)Nc4ccc(Cl)cc4)c3)CC2)c1", "XC50": 1180}, {"smiles": "O=S(=O)(NCCN1CCCC1)c1ccc(-c2cccc(CNCc3ccsc3)c2)s1", "XC50": 896}, {"smiles": "Cc1ccc(-c2ccc3c(c2)C=C(C(=O)NC2CCN(CCNC(=O)c4cccc(C(F)(F)F)c4)CC2)CCC3)cc1", "XC50": 512}, {"smiles": "O=C(/C=C/c1ccc(Cl)cc1Cl)NCCCCCN1CCC(c2c[nH]c3ccccc23)CC1", "XC50": 941}, {"smiles": "O=C(Nc1ccc(-c2ccc(CN3CCNCC3)cc2)cc1)c1cccc(Cl)c1", "XC50": 894}, {"smiles": "Cc1nc2c(-n3cc(Cn4ccnc4)c4ccccc43)ncnc2n1-c1ccc(Cl)cc1Cl", "XC50": 994}, {"smiles": "Fc1ccc2[nH]c(-c3cccc(-c4cccc(CNCc5ccccc5)c4)c3)nc2c1", "XC50": 283}, {"smiles": "COc1ccccc1CCNc1ncnc2c1[nH]c1ccc(F)cc12", "XC50": 837}, {"smiles": "CC(C)C[C@H](NC(=O)[C@H](Cc1ccccc1)N(C[C@H](Cc1ccccc1)NC(=O)OC(C)(C)C)C(=O)C(F)(F)F)C(=O)NC1CCN(Cc2ccccc2)CC1", "XC50": 530}, {"smiles": "CCN(CCCN1CCCCC1)c1cc(C)nc(Nc2ccc(C)cc2Br)n1", "XC50": 172}, {"smiles": "Cn1cnc2c(SCc3ccccc3OCc3ccccc3)ncnc21", "XC50": 922}, {"smiles": "CCCc1cc(OC)c(CC2c3cc(O)c(C)cc3CCN2C)cc1OC", "note": "(stereo not given)", "XC50": 701}, {"smiles": "COc1ccc2nccc([C@@H](O)CN3CCC(NC[C@H](Cc4ccccc4)NC(=O)OC(C)(C)C)CC3)c2c1", "XC50": 228}, {"smiles": "O=C(/C=C/c1ccc(F)cc1)NC1CCC(CCN2CCCN(c3ccc(C(F)(F)F)cn3)CC2)CC1", "note": "(stereo not given)", "XC50": 1080}, {"smiles": "NC(=O)c1cccc(C(=O)Nc2cccc(-c3cccc(-c4nc5ccccc5[nH]4)c3)c2)c1", "XC50": 548}, {"smiles": "COc1ccccc1N1CCN(CCCCNC(=O)c2ccc(NC(=O)c3ccc(C(F)(F)F)cc3)cc2)CC1", "XC50": 304}, {"smiles": "CN(Cc1cccc(O)c1)C1CCCN(c2cc(NC(=O)c3ccc(F)cc3)ccn2)C1", "note": "(stereo not given)", "XC50": 1070}, {"smiles": "CCc1ccc(N2C(=O)C3C(Cc4ccc(OC(C)(C)C)cc4)NC4(C(=O)N(Cc5ccccc5)c5ccc(F)cc54)C3C2=O)cc1", "note": "(stereo not given)", "XC50": 800}, {"smiles": "COC(=O)C(NC(=O)NC1CCN(c2ccnc(Nc3ccc(F)cc3)n2)C1)c1ccccc1", "note": "(stereo not given)", "XC50": 1050}, {"smiles": "CCC1N=C(N)N=C(N)N1OCc1ccc(Cl)c(Cl)c1", "note": "(stereo not given)", "XC50": 3.35}, {"smiles": "COc1ccc(CNc2nccc3ccc(-c4ccc(N)nc4)cc23)cc1", "XC50": 979}, {"smiles": "Fc1ccc(-c2oc(C3CCN(CCc4ccc(-c5noc(=S)[nH]5)cc4)CC3)nc2COCC(F)(F)F)cc1", "XC50": 418}]}]}
